Six compounds from patent US6169181A, “Compounds useful to treat retroviral infections” (Pharmacia & Upjohn Company, priority 1998, dated 2001) can be followed below.

Read-outs that look alike come from different tables or passages of the source.

In assay [1] the target is T1, HIV-1 protease (Human immunodeficiency virus type 1 group M subtype B, UniProt P04585). The assay can be described thus: biochemical. Summed up: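 Biotinylated, FITC-labelled peptide substrate cleaved in 0.1 M sodium acetate pH 5.5, 1.0 M NaCl, 0.05% NP-40, room temperature. Filtered labelled product read by fluorescence; nonlinear least-squares fit.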
Assay [2] concerns the target T1, HIV-1 protease. The assay can be described thus: biochemical. The conditions noted are these: read-out: Protease % Inhib. Put shortly:
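A substrate biotinylated at the N-terminal arginine and FITC-labelled at the C-terminal lysine was incubated with HIV-1 protease (10 μl of 0.1 μM) and compound for 1 h in the dark at room temperature. Buffer was 0.1 M sodium acetate pH 5.5, 1.0 M NaCl, 0.05% NP-40. Labelled product was separated from substrate using streptavidin beads and filtration, and the fluorescence gave percent inhibition.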

Where [3] appears, read: Table I, read-out: HIV Protease FITC Assay Ki.

As to `COc1ccc2c(O)c(C(c3cccc(NS(=O)(=O)c4cn(C)cn4)c3)C3CC3)c(=O)oc2c1` (stereo not drawn) [Example 152, N-(3-{Cyclopropyl-[7-methoxy-4-hydroxycoumarin-3-yl]-methyl}-phenyl)-1-methyl-1H-imidazole-4-sulfonamide], on HIV-1 protease [1] (HIV Protease FITC Assay Ki), affinity was put at a Ki of 0.71 nM. In addition, on HIV-1 protease [2], the inhibition at 0.123 µM stood at 11.5%, the inhibition at 0.37 µM was 80.2%, the inhibition at 1.1 µM is 95.8% and the inhibition at 3.3 µM is 94.4%. On HIV-1 protease [2], the inhibition at 10 µM was 95.5% and the inhibition at 30 µM was 96.5%.

On to `COCCOCCOCCOc1ccc2c(O)c(C(c3cccc(NS(=O)(=O)c4cccc5cccnc45)c3)C3CC3)c(=O)oc2c1` (stereo not drawn) [Example 153, N-(3-{Cyclopropyl-[7-(2-(2-(2-methoxyethoxy)-ethoxy)ethoxy)-4-hydroxycoumarin-3-yl]-methyl}-phenyl)-8-quinolinesulfonamide], for which the Ki (as a rule, a dissociation constant, usually derived from enzyme kinetics or from competition with a known ligand) at HIV-1 protease [1] (setting [3]) amounted to 1.85 nM. On HIV-1 protease [2] (Table I, Dose 0.123 μM), the inhibition at 0.123 µM is 81.3%. In addition, at HIV-1 protease [2] (Table I, Dose 0.370 μM), the inhibition at 0.37 µM was 91.1%. Besides, on HIV-1 protease [2] (Table I, Dose 1.100 μM), the inhibition at 1.1 µM worked out at 100%. For the same compound, the inhibition at 3.3 µM at HIV-1 protease [2] (Table I, Dose 3.300 μM) stood at 104%. For the same compound, the inhibition at 10 µM on HIV-1 protease [2] (Table I, Dose 10.000 μM) is 103%. In addition, at HIV-1 protease [2] (Table I, Dose 30.000 μM), the inhibition at 30 µM stood at 101%.

For `COCCOCCOCCOc1ccc2c(O)c(C(c3cccc(NS(=O)(=O)c4ccccn4)c3)C3CC3)c(=O)oc2c1` (stereo not drawn) [Example 154, N-(3-{Cyclopropyl-[7-(2-(2-(2-methoxyethoxy)-ethoxy)ethoxy)-4-hydroxycoumarin-3-yl]-methyl}-phenyl)-2-pyridinesulfonamide], at HIV-1 protease [1] (HIV Protease FITC Assay Ki), the affinity corresponds to a Ki of 0.22 nM. At HIV-1 protease [2], the inhibition at 0.123 µM amounted to 99.8%, the inhibition at 0.37 µM was 98.2%, the inhibition at 1.1 µM worked out at 99.5% and the inhibition at 3.3 µM is 97.6%. For the same compound, at HIV-1 protease [2], the inhibition at 10 µM was 104% and the inhibition at 30 µM was 99.2%.

Consider `CN(c1cccc(C(c2c(O)c3c(oc2=O)CCCCCC3)C2CC2)c1)S(=O)(=O)c1ccc(C#N)cc1` (stereo not drawn) [Example 192, 4-Cyano-N-methyl-N-[3-[cyclopropyl(5,6,7,8,9,10-hexahydro-4-hydroxy-2-oxo-2H-cycloocta[b]pyran-3-yl)methyl]phenyl]-benzenesulfonamide], for which the inhibition constant Ki on HIV-1 protease [1] (setting [3]) came out at 7.2 nM. Also, the inhibition at 0.123 µM on HIV-1 protease [2] (Table I, Dose 0.123 μM) is 44%. For the same compound, on HIV-1 protease [2] (Table I, Dose 0.370 μM), the inhibition at 0.37 µM is 76.3%. Also, on HIV-1 protease [2] (Table I, Dose 1.100 μM), the inhibition at 1.1 µM amounted to 94%. The inhibition at 3.3 µM on HIV-1 protease [2] (Table I, Dose 3.300 μM) is 96.9%. Moreover, the inhibition at 10 µM at HIV-1 protease [2] (Table I, Dose 10.000 μM) amounted to 103%. The inhibition at 30 µM at HIV-1 protease [2] (Table I, Dose 30.000 μM) worked out at 94.4%.

In the case of `CN(c1cccc(C(c2c(O)c3c(oc2=O)CCCCCC3)C2CC2)c1)S(=O)(=O)c1ccc(F)cc1` (stereo not drawn) [Example 193, 4-Fluoro-N-methyl-N-[3-[cyclopropyl(5,6,7,8,9,10-hexahydro-4-hydroxy-2-oxo-2H-cycloocta[b]pyran-3-yl)methyl]phenyl]-benzenesulfonamide], the Ki on HIV-1 protease [1] (setting [3]) turned out to be 35 nM. Further, on HIV-1 protease [2] (Table I, Dose 0.123 μM), the inhibition at 0.123 µM was determined as 18.4%. For the same compound, the inhibition at 0.37 µM on HIV-1 protease [2] (Table I, Dose 0.370 μM) is 40.3%. The inhibition at 1.1 µM at HIV-1 protease [2] (Table I, Dose 1.100 μM) came to 77.7%. Further, the inhibition at 3.3 µM at HIV-1 protease [2] (Table I, Dose 3.300 μM) came out at 98.1%. The inhibition at 10 µM on HIV-1 protease [2] (Table I, Dose 10.000 μM) came to 108%. Also, at HIV-1 protease [2] (Table I, Dose 30.000 μM), the inhibition at 30 µM was found to be 103%.

Turning to `CN(c1cccc(C(c2c(O)c3c(oc2=O)CCCCCC3)C2CC2)c1)S(=O)(=O)c1cn(C)cn1` (stereo not drawn) [Example 195, N-methyl-N-[3-[cyclopropyl(5,6,7,8,9,10-hexahydro-4-hydroxy-2-oxo-2H-cycloocta[b]pyran-3-yl)methyl]phenyl]-1H-Imidazole-1-methyl-sulfonamide], the Ki at HIV-1 protease [1] (setting [3]) came to 3.7 nM. For the same compound, the inhibition at 0.123 µM on HIV-1 protease [2] (Table I, Dose 0.123 μM) was found to be 60.9%. Besides, the inhibition at 0.37 µM on HIV-1 protease [2] (Table I, Dose 0.370 μM) is 85.1%. For the same compound, at HIV-1 protease [2] (Table I, Dose 1.100 μM), the inhibition at 1.1 µM is 90.8%. Also, the inhibition at 3.3 µM on HIV-1 protease [2] (Table I, Dose 3.300 μM) was found to be 90.8%. In addition, the inhibition at 10 µM on HIV-1 protease [2] (Table I, Dose 10.000 μM) stood at 93.1%. Also, the inhibition at 30 µM at HIV-1 protease [2] (Table I, Dose 30.000 μM) is 92.7%.
